Tests used:
zebrafish embryos = experiment: Whole cell current clamp recordings of endplate potentials in zebrafish ventral fast muscle cells; assay type: in vivo
Method: Experiments were conducted with zebrafish embryos (wildtype (wt) contras, smn-, ncald-, and smn/ncald-morphants) 72 hours post fertilization. The animals were anesthetized with 0.02% tricaine (in saline; E10521, Sigma-Aldrich, Taufkirchen, Germany) for 1-2 min and then rinsed with saline. The saline contained (in mM): 134 NaCl, 2.9 KCl, 2.1 CaCl2, 1.2 MgCl2, 10 HEPES, 10 Glucose adjusted to pH 7.8 with NaOH. The fish were decapitated and pinned under saline in a Sylgard-coated (SYLG184, Dow Coming, Midland, Mich.) recording chamber (˜3 ml volume). The skin was peeled off using a sharp tungsten pin and fine forceps and the preparation was incubated in 3 M formamide (in saline; 6749.1, Carl Roth GmbH, Karlsruhe) for 2 min to prevent muscle contractions. After rinsing the preparation, the superficial layer of ventral slow muscle cells was removed by gently scratching with a fine tungsten pin to expose deeper lying fast skeletal muscle cells. Remaining superficial slow muscles in the segments of interest were removed with a low resistance pipette (˜2 MΩ). […] Muscle cells were visualized with a fixed-stage upright microscope (Zeiss Axio Examiner, Carl Zeiss Microscopy GmbH, Jena, Germany), using a 40× water immersion objective (W Plan-Apochromat, 40×; 1.0 numerical aperture; 2.5 mm working distance; Zeiss) with infrared-differential interference contrast (Dodt and Zieglgansberger 1990) and fluorescence optics. […]
Whole-cell patch clamp recordings in current-clamp mode were performed with an EPC10 patch-clamp amplifier (HEKA-Elektronik, Lambrecht, Germany) that was controlled by the program Patchmaster (version 2.53, HEKA-Elektronik) running under Windows. […] The calculated liquid junction potential between intracellular and extracellular solution of 5.8 mV (calculated with Patcher's-Power-Tools plug-in from http://www.mpibpc.gwdg.de/abteilungen/140/software/index.html for Igor Pro 6 [Wavemetrics, Portland, Oreg., USA]) was also compensated. Whole-cell capacitance was determined by using the capacitance compensation (C-slow) of the EPC10. […]

zebrafish larvae = experiment: High-speed tracking of zebrafish swimming velocity after electric stimulation; assay type: in vivo; conditions: 48 hpf zebrafish, n=30 per treatment
Method: To analyse the swimming behaviour of zebrafish morphants, high-speed imaging was performed. In brief 30 zebrafish larvae, all treated with each respective morpholino, were placed in a 10 cm petri dish containing fish embryo medium. To trigger a swimming response, fish were stimulated with an electrical impulse (60 V; delay: 60 ms, duration: 4 ms, frequency: 6 pps (SD9 Stimulator)). Swimming behaviour was recorded with 120 frames per second using a high-speed camera (FC-100, Casio). Quality of the high-speed video was optimized for analysis (Adobe) and afterwards swimming velocity and distance was analysed using LoliTrack software (Loligo Systems).

## smn MO: previously published morpholino knocking down zebrafish smn, CGACATCTTCTGCACCATTGGC (all phosphorodiamidate morpholino (PMO))
Zebrafish embryos; 72 hpf zebrafish, ventral fast muscle cells, NMDA (100 μM) stimulation
  Frequency of large NMDA-induced EPP / action potentials: 0.37±0.17 Hz
Zebrafish embryos; 72 hpf zebrafish, ventral fast muscle cells, without stimulation
  Spontaneous mEPP frequency at rest: 0.32±0.16 Hz
Zebrafish embryos; zebrafish morphants compared to wild type
  Resting and NMDA induced EPP activity: significant reduction of the mEPP and the EPP rate
Zebrafish larvae
  Swimming velocity after electrical stimulation: significantly reduced velocity

From US9988626B2, “Neurocalcin delta inhibitors and therapeutic and non-therapeutic uses thereof” (Universität Zu Köln, priority 2013, dated 2018)
